The text below walks through data of patent US20250115573A1, “PYRIDAZINE-BASED PYRIDINE DERIVATIVES AS BIOLOGICALLY ACTIVE AGENTS” (priority 2023, published 2025).

Values after ≈ are worked out from the molar mass of the structure shown.

One assay addresses T1, human COX-2 (Homo sapiens, UniProt P35354).
T1 construct: purchased Cayman Chemicals 560131
T1 sequence (P35354 18-604): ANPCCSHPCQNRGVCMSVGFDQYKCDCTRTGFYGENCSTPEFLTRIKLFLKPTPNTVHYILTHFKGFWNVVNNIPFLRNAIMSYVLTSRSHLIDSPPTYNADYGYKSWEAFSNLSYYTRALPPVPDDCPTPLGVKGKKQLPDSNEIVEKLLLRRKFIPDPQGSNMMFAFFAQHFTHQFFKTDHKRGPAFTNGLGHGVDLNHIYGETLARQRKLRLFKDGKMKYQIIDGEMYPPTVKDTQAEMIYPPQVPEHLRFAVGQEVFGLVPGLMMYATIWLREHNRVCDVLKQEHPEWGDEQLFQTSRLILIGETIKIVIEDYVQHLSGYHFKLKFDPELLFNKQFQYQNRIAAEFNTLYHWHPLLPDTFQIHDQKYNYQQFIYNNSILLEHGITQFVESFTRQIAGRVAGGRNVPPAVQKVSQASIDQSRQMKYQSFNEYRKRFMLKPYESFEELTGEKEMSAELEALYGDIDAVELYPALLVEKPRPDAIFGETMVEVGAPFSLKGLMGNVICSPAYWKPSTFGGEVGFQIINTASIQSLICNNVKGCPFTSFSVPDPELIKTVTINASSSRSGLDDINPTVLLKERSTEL
Description: In vitro COX-2 inhibitory activity. Type of assay: biochemical. The following applies: for selectivity index: COX-2 over COX-1, selectivity index of celecoxib normalized to 100%; for COX-2 inhibitory activity in comparison to celecoxib: IC50 value of celecoxib normalized to 100%.

Assay [1] can be described thus: DPPH antioxidant activity. Particulars: DPPH method; ascorbic acid's IC50 value normalized to 100%. On the procedure: The antioxidant activity was assessed by the DPPH (1,1-diphenyl-2-picryl hydrazyl) method employing ascorbic acid as a standard. A 0.1 mM solution of DPPH was freshly prepared in ethanol. Different dilutions (25, 20, 15, 10 and 5 μg/mL) of compounds 1-12 and ascorbic acid were also prepared in ethanol. The test and standard solutions were prepared by adding DPPH solution (2 mL) to the different dilutions (6 mL each) of the compounds 1-12 and ascorbic acid, respectively. The control solution was prepared by adding DPPH solution (2 mL) to ethanol (6 mL). The resultant mixtures were shaken and kept at 25° C. for half an hour. The absorbance of the test, standard, and control solutions was measured at 517 nm using a UV-Visible spectrophotometer. The experiment was performed in triplicate, and the antioxidant activity was calculated using the following equation,
wherein Ac is the absorbance of the control, and As is the absorbance of the test or standard sample. The IC50 values were obtained from the regression analysis.
In general terms: Loss of DPPH colour is used to gauge radical scavenging.

Assay [2] has as its system Aspergillus niger (A. niger, MTCC 281). Nature of the assay: Antimicrobial activity, serial plate dilution method. Type of assay: cell-based. The following applies: MTCC281, against A. niger, Sabouraud dextrose medium. On the procedure:
(§1) Antimicrobial activity was performed by the serial plate dilution method (Medicinal Chemistry Research, 2017, 26, 1481-1496; Arabian Journal of Chemistry, 2016, 9, 1523-1531) against two Gram-positive bacteria, Staphylococcus aureus (S. aureus, ATCC 25923) and Enterococcus faecalis (E. faecalis, ATCC 29212); two Gram-negative bacteria, Escherichia coli (E. coli, ATCC 25922) and Pseudomonas aeruginosa (P. aeruginosa, ATCC 27853); and two fungi, Candida albicans (C. albicans, ATCC 2091) and Aspergillus niger (A. niger, MTCC 281). Antibacterial activity was performed on nutrient agar medium, whereas Sabouraud dextrose medium was used for the antifungal activity. The compounds 1-12 were tested at 100, 75, 50, 25, and 12.5 μg/mL concentrations. The standard antibiotics, ofloxacin and ketoconazole, were tested at 50, 25, and 12.5 μg/mL concentrations. Sterile dimethyl sulfoxide (DMSO) was used as a solvent for making the desired concentrations of the compounds ofloxacin and ketoconazole. Sterile DMSO also served as a control group. The minimum inhibitory concentrations (MICs) values of the synthesized compounds, ofloxacin and ketoconazole, were determined. The minimum inhibitory concentration (MIC) has been defined as the lowest concentration of a compound that inhibits the visible growth of the microorganisms in the media.

Assay [3] has as its system Candida albicans (C. albicans, ATCC 2091). The description is as above. Particulars: ATCC2091, against C. albicans, Sabouraud dextrose medium. Type of assay: cell-based. On the procedure:
as §1

In assay [4] the test system is Staphylococcus aureus (S. aureus, ATCC 25923). The assay is described as above. Type of assay: cell-based. The following applies: ATCC25923, against S. aureus, nutrient agar medium. The protocol:
as §1

The subject of assay [5] is Enterococcus faecalis (E. faecalis, ATCC 29212). Described as above. Particulars: ATCC29212, against E. faecalis, nutrient agar medium. It is filed as cell-based. On the procedure:
as §1

For `N#Cc1c(-c2ccc(-n3nc(-c4ccccc4)ccc3=O)cc2)c(C#N)c(=O)n(-c2nccs2)c1N` [Compound 7, 6-Amino-2-oxo-4-(4-(6-oxo-3-phenylpyridazin-1(6H) -yl)phenyl)-1-(thiazol-2-yl)-1,2-dihydro-pyridine-3,5-dicarbonitrile], the selectivity index on human COX-2 amounted to 121.73%.
Turning to `N#Cc1c(-c2ccc(-n3nc(-c4ccccc4)ccc3=O)cc2)c(C#N)c(=O)n(-c2ccccn2)c1N` [Compound 6, 6-Amino-2-oxo-4-(4-(6-oxo-3-phenylpyridazin-1(6H) -yl)phenyl)-2H-[1,2′-bipyridine]-3,5-dicarbonitrile], at human COX-2, the selectivity index was 101.61%.
Take `Cc1c(-n2c(N)c(C#N)c(-c3ccc(-n4nc(-c5ccccc5)ccc4=O)cc3)c(C#N)c2=O)c(=O)n(-c2ccccc2)n1C` [Compound 8, 6-Amino-1-(1,5-dimethyl-3-oxo-2-phenyl-2,3-dihydro-1H-pyrazol-4-yl)-2-oxo-4-(4-(6-oxo-3-phenylpyridazin-1(6H)-yl)phenyl) -1,2-dihydropyridine-3,5-dicarbonitrile]: the “antioxidant activity in comparison to ascorbic acid” value (shortened to “antioxidant activity in comparison”) in assay [1] is listed as 78.32%.
`CC(=O)N1CCN(c2ccc(OCC3COC(Cn4ccnc4)(c4ccc(Cl)cc4Cl)O3)cc2)CC1` (stereo not shown) [ketoconazole, reference compound]: the MIC in assay [2] and in assay [3] was 12.5 µg/mL (≈ 23.5 µM) each time.
As for `COc1ccccc1-n1c(N)c(C#N)c(-c2ccc(-n3nc(-c4ccccc4)ccc3=O)cc2)c(C#N)c1=O` [Compound 4, 6-Amino-1-(2-methoxyphenyl)-2-oxo-4-(4-(6-oxo-3-phenylpyridazin-1(6H)-yl)phenyl)-1,2-dihydropyridine-3,5-dicarbonitrile], the “antioxidant activity in comparison” value in assay [1] came out at 71.95%.
Consider `O=C1O[C@H]([C@@H](O)CO)C(O)=C1O` [ascorbic acid, reference compound], for which the “antioxidant activity in comparison” value in assay [1] came out at 100%.
`N#Cc1c(-c2ccc(-n3nc(-c4ccccc4)ccc3=O)cc2)c(C#N)c(=O)n(-c2ccc(S(N)(=O)=O)cc2)c1N` [Compound 10, 4-(6-amino-3,5-dicyano-2-oxo-4-(4-(6-oxo-3-phenylpyridazin-1(6H)-yl)phenyl)pyridin-1(2H)-yl)benzenesulfonamide] displayed an MIC in assay [4] of 25 µg/mL (≈ 44.5 µM). For the same compound, it took 25 µg/mL (≈ 44.5 µM) to inhibit growth in assay [5] (MIC). For the same compound, at human COX-2, the selectivity index is listed as 121.20% and the “COX-2 inhibitory activity in comparison to celecoxib” value came to 105.95%. Moreover, the “antioxidant activity in comparison” value in assay [1] worked out at 74%.
Turning to `N#Cc1c(-c2ccc(-n3nc(-c4ccccc4)ccc3=O)cc2)c(C#N)c(=O)n(-c2cccc(C(F)(F)F)c2)c1N` [Compound 9, 6-amino-2-oxo-4-(4-(6-oxo-3-phenylpyridazin-1(6H) -yl)phenyl)-1-(3-(trifluoromethyl)phenyl)-1,2-dihydropyridine-3,5-dicarbonitrile], the MIC in assay [2] turned out to be 12.5 µg/mL (≈ 22.7 µM). Further, it took 12.5 µg/mL (≈ 22.7 µM) to inhibit growth in assay [3] (MIC). Also, at human COX-2, the selectivity index was 111.0% and the “COX-2 inhibitory activity in comparison to celecoxib” value came to 100.89%. The “antioxidant activity in comparison” value in assay [1] was 70.90%.
Regarding `CC1COc2c(N3CCN(C)CC3)c(F)cc3c(=O)c(C(=O)O)cn1c23` (stereo not shown) [ofloxacin, reference compound], the MIC in assay [4] and in assay [5] was 25 µg/mL (≈ 69.2 µM) throughout.

The MIC is the smallest concentration in the dilution series that meets the test's criterion for growth inhibition.
